The values that follow come from publication PMC5910287 (ACS chemical biology, 2018).

The test concerns L. lactis HP. Put plainly: Minimal inhibitory concentrations determined in liquid media. The following applies: serial two-fold dilution, Fig. S12. Type of test: cell-based, Lactococcus lactis.

lacticin 481 [wt-lacticin 481] displayed a Minimal inhibitory concentration of 0.39 µM.
